Assay [1] concerns S. aureus DPC5246. Format: cell-based, Staphylococcus aureus. In outline: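 Agar well diffusion assay: peptides in 50 mM sodium phosphate pH 6.8, 1-in-4 dilutions from 1000 µM stock (250 to 0.24 µM) applied to S. aureus DPC5246 indicator plates at 37 °C. MIC is the lowest concentration giving an inhibition zone, in triplicate; concentrations rounded to whole numbers.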
For assay [2], the system named is Listeria innocua DPC3572. Format: cell-based. How it is done: (§1) Peptides were resuspended at 1000 µM in 50 mM sodium phosphate buffer pH 6.8 and checked for purity by MALDI-TOF-MS. Peptides were serially diluted 1 in 4 to give a dilution series of 250, 62.50, 15.63, 3.91, 0.98 and 0.24 µM and assayed by the agar well diffusion assay described by Ryan et al.[19]. Briefly, 50 µl aliquots of each peptide concentration were plated on a S. aureus DPC5246 indicator plate and the plate incubated at 37 °C. Peptide activity (Minimum Inhibitory Concentration (MIC)) was taken as the lowest concentration of peptide to give a zone of inhibition. All assays were performed in triplicate. The dilution series values were rounded to the nearest whole number to give 1000, 250, 63, 16, 4, 1 and 0.25 µM and data is colour coded for ease of interpretation.
(§2) Bactofencin R8Q and bactofencin R8K were synthesised as described above and their activity compared to bactofencin A against S. aureus DPC5246, Listeria innocua DPC3572 and L. monocytogenes ATCC 23074.

The subject of assay [3] is L. monocytogenes ATCC 23074. Format: cell-based, Listeria monocytogenes. How it is done:
as §1, §2

The test system of assay [4] is Listeria spp. To be noted: cell free supernatants of L plantarum ST31 against L. innocua and L. monocytogenes; cited from earlier work. From the text: Todorov et al. (1999) previously described plantaricin ST31, a bacteriocin with an amino acid sequence determined to be KRKKHRXQVYNNGMPTGMYR, produced by a sourdough isolate Lactobacillus plantarum ST31, with a reported mass of 2755 + /− 0.3 Da[20]. Substitution of Cys for X results in a peptide with a mass of 2468 Da. However if tryptophan and cysteine, the C terminal amino acids of bactofencin A are included, a mass of 2757 Da is obtained and subsequent oxidation of cysteines gives the published mass, 2755 Da.

Read-outs that look alike come from different tables or passages of the source. Bridge positions count the residues as written; N and C are the ends. Square brackets hold non-standard residues; d marks the D form. Ends that are not written are not given here. Peptide text beside a SMILES is read from it. Some results are limits rather than exact numbers.

Turning to `CSCC[C@@H]1NC(=O)CNC(=O)[C@H]([C@@H](C)O)NC(=O)[C@@H]2CCCN2C(=O)[C@H](CCSC)NC(=O)CNC(=O)[C@H](CC(N)=O)NC(=O)[C@H](CC(N)=O)NC(=O)[C@H](Cc2ccc(O)cc2)NC(=O)[C@H](C(C)C)NC(=O)[C@H](CCC(N)=O)NC(=O)[C@@H](NC(=O)[C@H](CCCNC(=N)N)NC(=O)[C@H](Cc2c[nH]cn2)NC(=O)[C@H](CCCCN)NC(=O)[C@H](CCCCN)NC(=O)[C@H](CCCNC(=N)N)NC(=O)[C@@H](N)CCCCN)CSSC[C@@H](C(=O)O)NC(=O)[C@H](Cc2c[nH]c3ccccc23)NC(=O)[C@H](CCCNC(=N)N)NC(=O)[C@H](Cc2ccc(O)cc2)NC1=O` [bactofencin R8Q] (H-KRKKHRCQVYNNGMPTGMYRWC-OH; disulfide 7-22; N-terminus assumed), the “Activity (Minimum Inhibitory Concentration, MIC)” value in assay [1] (agar well diffusion, 50 µl aliquots of 1 in 4 serial dilutions from 1000 µM in 50 mM sodium phosphate buffer pH 6.8, 37 °C, lowest concentration giving a zone of inhibition, triplicate, values rounded to whole numbers) turned out to be 1 µM. Moreover, the “Activity (MIC)” value in assay [2] (L. innocua DPC3572, agar well diffusion) is on record as 250 µM; in assay [3] (L. monocytogenes ATCC 23074, agar well diffusion) it was 250 µM. As to `CSCC[C@@H]1NC(=O)CNC(=O)[C@H]([C@@H](C)O)NC(=O)[C@@H]2CCCN2C(=O)[C@H](CCSC)NC(=O)CNC(=O)[C@H](CC(N)=O)NC(=O)[C@H](CC(N)=O)NC(=O)[C@H](Cc2ccc(O)cc2)NC(=O)[C@H](C(C)C)NC(=O)[C@H](CCCNC(=N)N)NC(=O)[C@@H](NC(=O)[C@H](CCCNC(=N)N)NC(=O)[C@H](Cc2c[nH]cn2)NC(=O)[C@H](CCCCN)NC(=O)[C@H](CCCCN)NC(=O)[C@H](CCCNC(=N)N)NC(=O)[C@@H](N)CCCCN)CSSC[C@@H](C(=O)O)NC(=O)[C@H](Cc2c[nH]c3ccccc23)NC(=O)[C@H](CCCNC(=N)N)NC(=O)[C@H](Cc2ccc(O)cc2)NC1=O` [bactofencin A] (H-KRKKHRCRVYNNGMPTGMYRWC-OH; disulfide 7-22), in assay [1] (DPC5246, pH 6.8), the “Activity (Minimum Inhibitory Concentration, MIC)” value is recorded as 1 µM. Moreover, the “Activity (MIC)” value in assay [2] and in assay [3] (ATCC 23074) was 63 µM throughout. On to `CSCC[C@@H]1NC(=O)CNC(=O)[C@H]([C@@H](C)O)NC(=O)[C@@H]2CCCN2C(=O)[C@H](CCSC)NC(=O)CNC(=O)[C@H](CC(N)=O)NC(=O)[C@H](CC(N)=O)NC(=O)[C@H](Cc2ccc(O)cc2)NC(=O)[C@H](C(C)C)NC(=O)[C@H](CCCNC(=N)N)NC(=O)[C@@H](NC(=O)[C@H](CCCNC(=N)N)NC(=O)[C@H](C)NC(=O)[C@H](CCCCN)NC(=O)[C@H](CCCCN)NC(=O)[C@H](CCCNC(=N)N)NC(=O)[C@@H](N)CCCCN)CSSC[C@@H](C(=O)O)NC(=O)[C@H](Cc2c[nH]c3ccccc23)NC(=O)[C@H](CCCNC(=N)N)NC(=O)[C@H](Cc2ccc(O)cc2)NC1=O` [H5A] (H-KRKKARCRVYNNGMPTGMYRWC-OH; disulfide 7-22), for which, in assay [1] (DPC5246, pH 6.8), the “Activity (Minimum Inhibitory Concentration, MIC)” value amounted to 1 µM. Consider KRKKHRSRVYNNGMPTGMYRWS [C7S-C22S], for which, in assay [1] (DPC5246, pH 6.8), the “Activity (Minimum Inhibitory Concentration, MIC)” value is reported as 63 µM. Regarding `CSCC[C@@H]1NC(=O)CNC(=O)[C@H](CC(N)=O)NC(=O)[C@H](CC(N)=O)NC(=O)[C@H](Cc2ccc(O)cc2)NC(=O)[C@H](C(C)C)NC(=O)[C@H](CCCNC(=N)N)NC(=O)[C@@H](NC(=O)[C@H](CCCNC(=N)N)NC(=O)[C@H](Cc2c[nH]cn2)NC(=O)[C@H](CCCCN)NC(=O)[C@H](CCCCN)NC(=O)[C@H](CCCNC(=N)N)NC(=O)[C@@H](N)CCCCN)CSSC[C@@H](C(=O)O)NC(=O)[C@H](Cc2c[nH]c3ccccc23)NC(=O)[C@H](CCCNC(=N)N)NC(=O)[C@H](Cc2ccc(O)cc2)NC(=O)[C@H](C)NC(=O)CNC(=O)[C@H]([C@@H](C)O)NC(=O)[C@@H]2CCCN2C1=O` [M18A] (H-KRKKHRCRVYNNGMPTGAYRWC-OH; disulfide 7-22), the “Activity (Minimum Inhibitory Concentration, MIC)” value in assay [1] (DPC5246, pH 6.8) is reported as 1 µM.

`CSCC[C@@H]1NC(=O)CNC(=O)[C@H]([C@@H](C)O)NC(=O)[C@@H]2CCCN2C(=O)[C@H](CCSC)NC(=O)CNC(=O)[C@H](CC(N)=O)NC(=O)[C@H](CC(N)=O)NC(=O)[C@H](Cc2ccc(O)cc2)NC(=O)[C@H](C(C)C)NC(=O)[C@H](CCCNC(=N)N)NC(=O)[C@@H](NC(=O)[C@H](CCCNC(=N)N)NC(=O)[C@H](Cc2c[nH]cn2)NC(=O)[C@H](CCCCN)NC(=O)[C@H](C)NC(=O)[C@H](CCCNC(=N)N)NC(=O)[C@@H](N)CCCCN)CSSC[C@@H](C(=O)O)NC(=O)[C@H](Cc2c[nH]c3ccccc23)NC(=O)[C@H](CCCNC(=N)N)NC(=O)[C@H](Cc2ccc(O)cc2)NC1=O` [K3A] (H-KRAKHRCRVYNNGMPTGMYRWC-OH; disulfide 7-22): the “Activity (Minimum Inhibitory Concentration, MIC)” value in assay [1] (DPC5246, pH 6.8) amounted to 1 µM. The same measure, in the same setting: the figure for `CSCC[C@@H]1NC(=O)CNC(=O)[C@H]([C@@H](C)O)NC(=O)[C@@H]2CCCN2C(=O)[C@H](CCSC)NC(=O)CNC(=O)[C@H](CC(N)=O)NC(=O)[C@H](CC(N)=O)NC(=O)[C@H](Cc2ccc(O)cc2)NC(=O)[C@H](C(C)C)NC(=O)[C@H](CCCNC(=N)N)NC(=O)[C@@H](NC(=O)[C@H](CCCNC(=N)N)NC(=O)[C@H](Cc2c[nH]cn2)NC(=O)[C@H](CCCCN)NC(=O)[C@H](CCCCN)NC(=O)[C@H](CCCNC(=N)N)NC(=O)[C@@H](N)CCCCN)CSSC[C@@H](C(=O)O)NC(=O)[C@@H](Cc2c[nH]c3ccccc23)NC(=O)[C@H](CCCNC(=N)N)NC(=O)[C@H](Cc2ccc(O)cc2)NC1=O` [W21Wd] (H-KRKKHRCRVYNNGMPTGMYR[dW]C-OH; disulfide 7-22; N-terminus assumed) is 4 µM.

For the molecule “KRKKHRXQVYNNGMPTGMYR [plantaricin ST31, bacteriocin produced by sourdough isolate Lactobacillus plantarum ST31 (Todorov et al. 1999); likely natural R8Q variant of bactofencin A]”, the “activity against Listeria spp., in words” value in assay [4] was “inactive”.

As for `CSCC[C@@H]1NC(=O)CNC(=O)[C@H](C)NC(=O)[C@@H]2CCCN2C(=O)[C@H](CCSC)NC(=O)CNC(=O)[C@H](CC(N)=O)NC(=O)[C@H](CC(N)=O)NC(=O)[C@H](Cc2ccc(O)cc2)NC(=O)[C@H](C(C)C)NC(=O)[C@H](CCCNC(=N)N)NC(=O)[C@@H](NC(=O)[C@H](CCCNC(=N)N)NC(=O)[C@H](Cc2c[nH]cn2)NC(=O)[C@H](CCCCN)NC(=O)[C@H](CCCCN)NC(=O)[C@H](CCCNC(=N)N)NC(=O)[C@@H](N)CCCCN)CSSC[C@@H](C(=O)O)NC(=O)[C@H](Cc2c[nH]c3ccccc23)NC(=O)[C@H](CCCNC(=N)N)NC(=O)[C@H](Cc2ccc(O)cc2)NC1=O` [T16A] (H-KRKKHRCRVYNNGMPAGMYRWC-OH; disulfide 7-22), the “Activity (Minimum Inhibitory Concentration, MIC)” value in assay [1] (DPC5246, pH 6.8) amounted to 16 µM. As to `CSCC[C@@H]1NC(=O)CNC(=O)[C@H]([C@@H](C)O)NC(=O)[C@@H]2CCCN2C(=O)[C@H](CCSC)NC(=O)CNC(=O)[C@H](CC(N)=O)NC(=O)[C@H](CC(N)=O)NC(=O)[C@H](Cc2ccc(O)cc2)NC(=O)[C@H](C(C)C)NC(=O)[C@H](CCCNC(=N)N)NC(=O)[C@@H](NC(=O)[C@H](CCCNC(=N)N)NC(=O)[C@H](Cc2c[nH]cn2)NC(=O)[C@@H](N)CCCCN)CSSC[C@@H](C(=O)O)NC(=O)[C@H](Cc2c[nH]c3ccccc23)NC(=O)[C@H](CCCNC(=N)N)NC(=O)[C@H](Cc2ccc(O)cc2)NC1=O` [K4-C22] (H-KHRCRVYNNGMPTGMYRWC-OH; disulfide 4-19; N-terminus assumed), the “Activity (Minimum Inhibitory Concentration, MIC)” value in assay [1] (DPC5246, pH 6.8) is listed as 4 µM. For `CSCC[C@@H]1NC(=O)CNC(=O)[C@H]([C@@H](C)O)NC(=O)[C@H]2CCCN2C(=O)[C@H](CCSC)NC(=O)CNC(=O)[C@H](CC(N)=O)NC(=O)[C@H](CC(N)=O)NC(=O)[C@H](Cc2ccc(O)cc2)NC(=O)[C@H](C(C)C)NC(=O)[C@H](CCCNC(=N)N)NC(=O)[C@@H](NC(=O)[C@H](CCCNC(=N)N)NC(=O)[C@H](Cc2c[nH]cn2)NC(=O)[C@H](CCCCN)NC(=O)[C@H](CCCCN)NC(=O)[C@H](CCCNC(=N)N)NC(=O)[C@@H](N)CCCCN)CSSC[C@@H](C(=O)O)NC(=O)[C@H](Cc2c[nH]c3ccccc23)NC(=O)[C@H](CCCNC(=N)N)NC(=O)[C@H](Cc2ccc(O)cc2)NC1=O` [P15Pd] (H-KRKKHRCRVYNNGM[dP]TGMYRWC-OH; disulfide 7-22; N-terminus assumed), the “Activity (Minimum Inhibitory Concentration, MIC)” value in assay [1] (DPC5246, pH 6.8) is listed as over 1000 µM.
